Reference: US20050164945A1, “Endotheliase-1 ligands” (priority 2003, published 2005)

Legend:
ET-2 = conditions: for IC50: read-out: ET-2 estimated IC50, 30 minute preincubation with 100 nM Kunitz domain; for ET-2 estimated IC50: 30 minute preincubation with 100 nM Kunitz domain
Experimental: (§1) Cloning into this vector placed a His-tag at the C-terminus of the protein that was used to facilitate purification.
(§2) For protein production, E. coli containing the expression vector were grown in media containing ampicillin and 2% glucose to an OD600 of 0.5. At this time the cells were spun down and the media removed. The cell pellet was then resuspended in fresh media containing ampicillin and 1 mM IPTG to induce expression of the protein. The cells were allowed to grow with shaking overnight at 30° C. before harvesting by centrifugation. Periplasmic extracts were then prepared and the MBP-Kunitz fusion purified using immobilized metal ion chromatography.

Trypsin = conditions: read-out: Trypsin estimated IC50, 30 minute preincubation with 100 nM Kunitz domain
Experimental: as §1, §2

fXa = fXa (Homo sapiens, UniProt P00742); conditions: 30 minute preincubation with 100 nM Kunitz domain
Experimental: as §1, §2

MTSP-1 = MTSP-1 (Homo sapiens, UniProt Q9Y5Y6); conditions: 30 minute preincubation with 100 nM Kunitz domain
Experimental: as §1, §2

TnIV = TnIV (Homo sapiens, UniProt P35030); conditions: 30 minute preincubation with 100 nM Kunitz domain
Experimental: as §1, §2

Chain of fXa (P00742 235-488 limits assumed): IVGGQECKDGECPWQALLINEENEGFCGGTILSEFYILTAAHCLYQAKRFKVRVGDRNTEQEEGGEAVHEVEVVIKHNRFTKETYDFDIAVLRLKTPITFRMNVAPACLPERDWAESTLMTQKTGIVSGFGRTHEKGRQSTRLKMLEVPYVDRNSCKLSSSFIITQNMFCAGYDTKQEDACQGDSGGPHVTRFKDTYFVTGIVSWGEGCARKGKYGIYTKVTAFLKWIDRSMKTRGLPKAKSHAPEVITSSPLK
Chain of fXa (P00742 41-179 partner limits assumed): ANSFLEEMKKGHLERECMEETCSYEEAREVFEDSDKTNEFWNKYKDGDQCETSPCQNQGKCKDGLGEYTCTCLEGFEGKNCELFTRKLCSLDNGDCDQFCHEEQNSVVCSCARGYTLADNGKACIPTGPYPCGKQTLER
Chain of TnIV (P35030 whole entry, the tested form may be a part): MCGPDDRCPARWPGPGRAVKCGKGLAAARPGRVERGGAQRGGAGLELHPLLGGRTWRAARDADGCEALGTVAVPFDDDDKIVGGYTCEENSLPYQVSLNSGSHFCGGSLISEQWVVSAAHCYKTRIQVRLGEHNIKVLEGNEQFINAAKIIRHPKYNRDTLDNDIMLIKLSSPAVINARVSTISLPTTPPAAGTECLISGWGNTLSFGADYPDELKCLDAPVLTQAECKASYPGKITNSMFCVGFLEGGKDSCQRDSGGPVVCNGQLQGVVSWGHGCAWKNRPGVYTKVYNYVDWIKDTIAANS
Chain of MTSP-1 (Q9Y5Y6 whole entry, species assumed, the tested form may be a part): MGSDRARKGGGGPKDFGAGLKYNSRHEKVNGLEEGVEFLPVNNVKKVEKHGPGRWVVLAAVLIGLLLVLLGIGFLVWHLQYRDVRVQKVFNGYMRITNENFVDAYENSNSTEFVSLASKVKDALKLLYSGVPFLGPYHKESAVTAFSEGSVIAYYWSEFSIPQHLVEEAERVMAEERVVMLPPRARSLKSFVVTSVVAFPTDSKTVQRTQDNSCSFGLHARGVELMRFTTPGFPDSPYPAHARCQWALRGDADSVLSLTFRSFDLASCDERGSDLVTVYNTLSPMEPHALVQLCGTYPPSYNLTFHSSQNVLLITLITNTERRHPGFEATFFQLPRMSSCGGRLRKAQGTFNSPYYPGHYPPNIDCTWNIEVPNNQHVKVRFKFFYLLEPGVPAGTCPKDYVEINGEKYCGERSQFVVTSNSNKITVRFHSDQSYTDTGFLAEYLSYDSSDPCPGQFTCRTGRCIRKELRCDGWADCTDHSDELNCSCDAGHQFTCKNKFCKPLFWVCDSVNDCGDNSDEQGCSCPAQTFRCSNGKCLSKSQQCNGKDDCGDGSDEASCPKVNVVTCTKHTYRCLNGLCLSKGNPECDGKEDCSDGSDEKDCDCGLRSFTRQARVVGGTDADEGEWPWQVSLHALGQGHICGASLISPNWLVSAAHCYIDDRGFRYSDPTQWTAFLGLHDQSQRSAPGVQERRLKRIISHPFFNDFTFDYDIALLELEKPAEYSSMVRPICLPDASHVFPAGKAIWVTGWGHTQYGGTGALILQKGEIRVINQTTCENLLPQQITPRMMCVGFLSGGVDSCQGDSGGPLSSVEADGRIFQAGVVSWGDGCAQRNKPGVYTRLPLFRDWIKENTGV
Chain of ET-2 (Q9BYE2 326-559 limits assumed): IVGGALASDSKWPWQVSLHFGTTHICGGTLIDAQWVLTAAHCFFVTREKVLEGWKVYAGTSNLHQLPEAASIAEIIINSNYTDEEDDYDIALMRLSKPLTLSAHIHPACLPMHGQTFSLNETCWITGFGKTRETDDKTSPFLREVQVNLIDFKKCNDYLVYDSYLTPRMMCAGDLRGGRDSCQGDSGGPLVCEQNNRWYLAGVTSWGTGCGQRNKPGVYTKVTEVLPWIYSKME

| Sequence | IC50 (ET-2) | IC50 (Trypsin) | fXa estimated IC50 (fXa) | ET-2 estimated IC50 (ET-2) | MTSP-1 estimated IC50 (MTSP-1) | TnIV estimated IC50 (TnIV) |
| --- | --- | --- | --- | --- | --- | --- |
| MAAEMHSFCAFKADPGPCRAMFNRFFFNIFTRQCEEFNYGGCSGNQNRFESLEECKKMCTRDSASSASGDFD [MBP-1E6] | ~400 nM | < 10 nM | IA (IA = <5% inhibition @ 100 nM) |  |  |  |
| MAAEMHSFCAFKADTGTCRAAMVRFFFNIFTRQCEEFTYGGCEGNQNRFESLEECKKMCTRDSASSASGDFD [MBP-1H8] |  | ~30 nM | IA (IA = <5% inhibition @ 100 nM) | IA (IA = <5% inhibition @ 100 nM) | IA (IA = <5% inhibition @ 100 nM) | IA (IA = <5% inhibition @ 100 nM) |
| MAAEMHSFCAFKADKGECRASVQRFFFNIFTRQCEEFNYGGCGGNQNRFESLEECKKMCTRDSASSASGDFD [MBP-D12] |  | ~30 nM |  | IA (IA = <5% inhibition @ 100 nM) | IA (IA = <5% inhibition @ 100 nM) |  |
| MAAEMHSFCAFKADQGPCRAAISRFFFNIFTRQCEEFVYGGCEGNQNRFESLEECKKMCTRDSASSASGDFD [MBP-1D9] | ≥ 1000 nM | ~50 nM | IA (IA = <5% inhibition @ 100 nM) |  | IA (IA = <5% inhibition @ 100 nM) |  |
| MAAEMHSFCAFKADKGTCRGDFPRFFFNIFTRQCEEFHYGGCGGNQNRFESLEECKKMCTRDSASSASGDFD [MBP-1E9] |  | ≥ 1000 nM | IA (IA = <5% inhibition @ 100 nM) | IA (IA = <5% inhibition @ 100 nM) | IA (IA = <5% inhibition @ 100 nM) |  |
| MAAEMHSFCAFKADKGFCRAMDIRFFFNIFTRQCEEFIYGGCGGNQNRFESLEECKKMCTRDSASSASGDFD [MBP-1B2] |  | < 10 nM | IA (IA = <5% inhibition @ 100 nM) | IA (IA = <5% inhibition @ 100 nM) | IA (IA = <5% inhibition @ 100 nM) |  |
| MAAEMHSFCAFKADPGQCRAYYRRFFFNIFTRQCEEFVYGGCMGNQNRFESLEECKKMCTRDSASSASGDFD [MBP-1G2] | ~300 nM | < 10 nM |  |  | IA (IA = <5% inhibition @ 100 nM) |  |
| MAAEMHSFCAFKADQGPCRASVHRFFFNIFTRQCEEFFYGGCLGNQNRFESLEECKKMCTRDSASSASGDFD [MBP-1F8] |  | < 10 nM | IA (IA = <5% inhibition @ 100 nM) | IA (IA = <5% inhibition @ 100 nM) | IA (IA = <5% inhibition @ 100 nM) | IA (IA = <5% inhibition @ 100 nM) |
| MAAEMHSFCAFKADPGPCRAIMTRFFFNIFTRQCEEFRYGGCLGNQNRFESLEECKKMCTRDSASSASGDFD [MBP-1G11] | ≥ 1000 nM | < 10 nM |  |  | IA (IA = <5% inhibition @ 100 nM) |  |
| MAAEMHSFCAFKADRGPCRADFHRFFFNIFTRQCEEFHYGGCGGNQNRFESLEECKKMCTRDSASSASGDFD [MBP-1A10] |  | < 10 nM | IA (IA = <5% inhibition @ 100 nM) | IA (IA = <5% inhibition @ 100 nM) |  |  |
| MAAEMHSFCAFKADRGPCRAYFDRFFFNIFTRQGEEFIYGGCMGNQNRFESLEECKKMCTRDSASSASGDFD [MBP-1G8] |  | ~10 nM |  | IA (IA = <5% inhibition @ 100 nM) | IA (IA = <5% inhibition @ 100 nM) |  |
| MAAEMHSFCAFKADTGPCRADIKRFFFNIFTRQCEEFRYGGCMGNQNRFESLEECKKMCTRDSASSASGDFD [MBP-1G9] |  | ~60 nM | IA (IA = <5% inhibition @ 100 nM) | IA (IA = <5% inhibition @ 100 nM) |  | IA (IA = <5% inhibition @ 100 nM) |
